According to patent publication US8614203B2, “Methods for the treatment of a central nervous system injury via a tapered administration protocol” (Emory University, priority 2005, dated 2013):

Key:
[1] = system: bilateral contusions of the medial prefrontal cortex; assay: Example 1: Morris water maze (MWM) task after TBI; assay type: in vivo, Sprague-Dawley rats
Protocol: (§1) Male Sprague-Dawley rats (300 g) were housed individually in wire cages and kept on a reverse light-dark cycle (0800-2000 h). […] All procedures involving animals conformed to guidelines set forth in the Guide for the Care and Use of Laboratory Animals (U.S. Department of Health and Human Services, Pub no. 85-23, 1985) and were approved by the Emory University Institutional Animal Care and Use Committee.
Bilateral contusions of the medial prefrontal cortex were created by a pneumatic impactor device as previously described. Briefly, rats were given anesthetized with ketamine/xylazine (90 mg/kg; 10 mg/kg) and placed in a stereotaxic apparatus. A craniectomy (diameter 6 mm) was made over the midline of the prefrontal cortex with its center 1.5 mm AP to bregma. After removal of the bone, the tip of the impactor (diameter 5 mm) was moved to +3.0 mm AP; 1.0 mm ML (from bregma), and checked for adequate clearance. Trauma was produced by pneumatically activating the piston to impact −2.0 mm DV (from dura) at a velocity of 3 m/s with a brain contact time of 0.5 seconds.
Control animals received injections of vehicle at similar time-points. Animals were coded with regard to surgery and treatment to prevent experimenter bias during behavioral testing and histological examination.
Experienced individuals who were blind to treatment conditions of the study conducted all histological and behavioral analyses. All data were tested for normality and homoschedasticity before being analyzed by parametric analysis of variance (ANOVA). MWM results were analyzed using separate mixed-factorial (4 groups×5 days) analysis of variance (ANOVA) on each of the two 5-day testing periods (acquisition and retention respectively). Results of the BSN task were analyzed using the mixed-factorial ANOVA (4 groups×2 post-injury trials). Histological comparisons on mean densitometry recordings, area measurements, and cell counts were made using a one-way ANOVA. All between-group comparisons were made using multiple Tukey post-hoc tests (p<0.05) when the overall ANOVA was significant ([…]) between groups. Pearson r coefficients were calculated to determine whether significant correlations could be detected between histological (e.g., lesion size and cellular density) and behavioral parameters (e.g., acquisition and retention of the MWM task and measures of sensory neglect).
Beginning one week after surgery, spatial learning ability was assessed in the Morris water maze (MWM) task described previously. […] Animals were placed in the pool (nose facing the pool-wall) at one of four randomly determined starting positions (e.g.: N, S, E, W). […] Swim speed measures were recorded daily in order to delineate motor dysfunction from learning impairment.

[2] = system: bilateral contusions of the medial prefrontal cortex; assay: Example 1: bilateral sensory neglect (BSN) task after TBI; assay type: in vivo, Sprague-Dawley rats; settings: 4 mg/kg, 3 days (LP3); 6 and 20 days post injury
Protocol: as §1
Bilateral contusions of the medial prefrontal cortex were created by a pneumatic impactor device as previously described. Briefly, rats were given anesthetized with ketamine/xylazine (90 mg/kg; 10 mg/kg) and placed in a stereotaxic apparatus. […]
Experienced individuals who were blind to treatment conditions of the study conducted all histological and behavioral analyses. All data were tested for normality and homoschedasticity before being analyzed by parametric analysis of variance (ANOVA). MWM results were analyzed using separate mixed-factorial (4 groups×5 days) analysis of variance (ANOVA) on each of the two 5-day testing periods (acquisition and retention respectively). Results of the BSN task were analyzed using the mixed-factorial ANOVA (4 groups×2 post-injury trials). […]
Measures of attentional abilities, using a bilateral sensory neglect (BSN) task, were recorded one day prior to surgery (baseline) and on postsurgical days 6 and 20. […]

CC(=O)[C@H]1CC[C@H]2[C@@H]3CCC4=CC(=O)CC[C@]4(C)[C@H]3CC[C@]12C [progesterone, pregn-4-ene-3,20-dione]
MWM spatial learning performance, second 5-day trial block (retention) ([1]; 4 mg/kg in peanut oil, 5 days (LP5)): improved spatial learning performance
MWM spatial learning performance, initial 5-day acquisition phase ([1]; 4 mg/kg in peanut oil, LP3 and LP5 (all injured groups)): deficits in spatial learning performance as compared to control animals
thigmotaxic (wall-hugging) swim patterns in MWM ([1]; 4 mg/kg, 5 days (LP5), last 2 days of second phase of MWM testing): reduction of thigmotaxic behavior
swim speed in MWM ([1]; 4 mg/kg, LP3 and LP5, any day of testing): no between-group differences on swim speed measurements
BSN task performance (latency to remove adhesive stimuli) [2]: impaired on this task compared to control animals at both 6 and 20 days post injury
